Read-outs that look alike come from different tables or passages of the source.
How the values were obtained:
[1] = test system: Caco-2 (human epithelial colorectal adenocarcinoma) cell line; test: MTT toxicity assay against Caco-2 cells; format: cell-based
Protocol: (§1) BHK (baby hamster kidney); Caco-2 (heterogeneous human epithelial colorectal adenocarcinoma); and Hep-G2 (liver carcinoma). All cell lines were cultured in 75 mL culture flasks in DMEM culture media (Dulbecco's Modified Eagle's Medium, Gibco, Thermo Fisher, UK) supplemented with 10% fetal bovine serum (Gibco, Thermo Fisher, UK), 1% MEM Non-Essential Amino Acid (Sigma, UK) and 1% penicillin-streptomycin (Sigma) at 37°C in an atmosphere of 5% humidified CO2. Cells used in the study were in the logarithmic growth phase, and unless stated were grown to 70% confluence, and then trypsinized with 0.5% trypsin-EDTA (Gibco, Canada) for detachment and use in the assays. […] The cells were cultured in 96-well microtiter plates containing the respective media to a cell density of 3,000 per well at 37°C in an atmosphere of air containing 5% CO2. Cell viability was assessed after continuous exposure to various concentrations of drugs (ranging from 0.5 to 400 μM) for 24 and 48 h. […] The amount of MTT reduced to formazan within the cells was quantified by measuring the absorbance at λ = 570 nm using a Fluostar Galaxy Microplate Reader. The average values presented are based on at least three independent experiments. The IC50 values were determined using GraphPad Prism 7.0 (GraphPad Software, San Diego, USA).

[2] = test system: BHK (baby hamster kidney) cell line; test: MTT toxicity assay against BHK cells; format: cell-based
Protocol: as §1, with “h. Cisplatin served as a treatment evaluation standard.” for “h.”

[3] = set-up: method as in Li et al., 2017; settings: mice, ref Li et al., 2017; cited from earlier work
[4] = biological target: T1, human serum albumin (HSA) (Homo sapiens, UniProt P02768); set-up: method as in Li et al., 2013b; settings: ref Li et al., 2013b; cited from earlier work
T1 construct: purchased Sigma-Aldrich
T1 sequence (P02768 25-609): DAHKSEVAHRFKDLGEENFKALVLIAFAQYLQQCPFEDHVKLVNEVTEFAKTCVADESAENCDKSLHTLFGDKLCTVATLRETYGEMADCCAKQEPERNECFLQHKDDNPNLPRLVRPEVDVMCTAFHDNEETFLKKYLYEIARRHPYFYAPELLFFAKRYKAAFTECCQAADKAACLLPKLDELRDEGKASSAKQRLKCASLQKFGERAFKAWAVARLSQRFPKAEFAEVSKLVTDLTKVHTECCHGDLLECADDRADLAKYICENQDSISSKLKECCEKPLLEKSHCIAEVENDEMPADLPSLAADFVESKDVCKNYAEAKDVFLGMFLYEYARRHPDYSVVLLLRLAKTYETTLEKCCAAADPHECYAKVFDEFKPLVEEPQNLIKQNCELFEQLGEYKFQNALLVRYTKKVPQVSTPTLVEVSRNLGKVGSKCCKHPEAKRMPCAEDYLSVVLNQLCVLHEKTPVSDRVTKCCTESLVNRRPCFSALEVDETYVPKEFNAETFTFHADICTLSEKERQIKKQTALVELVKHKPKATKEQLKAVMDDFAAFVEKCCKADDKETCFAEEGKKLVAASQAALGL

[5] = test system: Hep-G2 (human hepatocellular carcinoma) cell line; test: MTT toxicity assay against Hep-G2 cells; format: cell-based
Protocol: as §1, with “h. Cisplatin served as a treatment evaluation standard.” for “h.”

[6] = set-up: method as in Sun et al., 2018; settings: ref Sun et al., 2018; cited from earlier work
[7] = biological target: T1, human serum albumin (HSA); test: HSA binding by tryptophan fluorescence quenching; settings: for Kapp (apparent HSA binding constant) / binding number n for HSA binding: [Ru complex]/[HSA] ratio 0 to 2.4, 0.1 M sodium phosphate pH 7.4
Protocol: All solutions used in the protein binding studies were dissolved in a 0.1 M sodium phosphate buffer (pH = 7.4). Protein solutions (5 μM) were titrated with the ruthenium complexes from 2 mM stock solutions, from a metal complex/protein ratio of 0.0 to 8.0. […] All experiments were carried out in triplicate, with results presented as mean and standard deviation.
The static quenching via binding of the ruthenium complexes to HSA can be represented as: nRu+HSA→nRu⋯ HSA where nRu…HSA denotes the quenched ruthenium complex/HSA species. A double-logarithm equation of log10[(F0-F)/F] vs. log10[Ru] can then be used to express the equilibrium between the free and bound ruthenium(II) complex to determine the apparent binding constant (Kapp) and the binding number (n) (Krause-Heuer et al., [2012]). log [F0-F/F]=log10Kapp+nlog10[Ru]
It was not possible to determine a single apparent HSA binding constant, as a linear relationship was not observed over the entire concentration range of added ruthenium complex in the plot of log10[(F0 – F)/F] vs. log10[Ru]. However, two distinct linear sections could be found in the analysis of the double logarithm, corresponding to ruthenium complex to HSA ratios of (a) 0 to 2.4 and (b) 2.4 to 8. As previously observed (Li et al., [2013b]), the two binding ratio regions represent an initial 1:1 binding at low ruthenium complex concentration (ratios 0–2.4), and then upon addition of further ruthenium complex, a region (2.4–8) where multiple ruthenium complexes (≥ 2:1) are bound to HSA. The higher affinity 1:1 HSA binding constant Kapp and the binding numbers n for the ruthenium complexes determined at low ratios of added ruthenium complex are summarized in Table 2.

[8] = test system: Gram-positive and Gram-negative bacteria; settings: 2018, cited from earlier work; for MIC: Gram-positive and Gram-negative bacteria, ref Gorle et al., 2015, Sun et al.
[9] = test system: eukaryotic cells (BHK, Hep-G2, Caco-2); test: Toxicity to the panel of eukaryotic cell lines (comparisons); format: cell-based
Protocol: as §1, with “h. Cisplatin served as a treatment evaluation standard.” for “h.”

[10] = test system: BHK cells; test: Confocal microscopy of cellular accumulation in BHK cells; format: cell-based, hamster
Protocol: The trypsinized BHK cells were seeded on sterile, poly L-lysine coated, coverslips in a 24-well plate. The ruthenium complex was applied to the cells in growth media to make the desired concentration (25 μM) and incubated at 37°C with 5% CO2 for 1 h. Following the incubation, 100 nM Mitotracker® Green FM (Invitrogen) was added for mitochondrial staining. Staining was carried out in DMEM medium under standard cultivation conditions as per the manufacturer's instructions. Following staining, the coverslips were gently rinsed with phosphate buffer solution (PBS, pH = 7.1) prior to confocal laser scanning microscopy.
The cellular accumulation of the ruthenium complex was determined using a laser scanning confocal microscope (FV3000, Olympus). Samples were viewed under 60× silicone immersion using the following excitation (λex) and emission (λem) wavelengths. Ruthenium complex (λex = 450 nm, λem = 630 nm) and Mitotracker Green FM (λex = 490 nm, λem = 516 nm) were excited using a blue argon laser (λex = 488 nm), and emissions were collected at λ = 600–650 nm for the ruthenium complex and λ = 500–550 nm for Mitotracker Green. […] The luminescence intensity of cis-α-[Ru(Me4phen)(bb7)]^2+ inside the BHK cells was quantified using the surface rendering function of Imaris 9.2.1 software, and the data analyzed for statistical difference using the Wilcoxon-test and t-test methods.

[11] = 24-h incubation, read-out: IC50 Caco-2 24 h
[12] = 48-h incubation, read-out: IC50 Caco-2 48 h
[13] = 24-h incubation, read-out: IC50 BHK 24 h
[14] = 48-h incubation, read-out: IC50 BHK 48 h
[15] = 24-h incubation, read-out: IC50 Hep-G2 24 h
[16] = 48-h incubation, read-out: IC50 Hep-G2 48 h

Row | Molecule | IC50 [1, 11] [µM] | IC50 [1, 12] [µM] | IC50 [2, 13] [µM] | IC50 [2, 14] [µM] | IC50 [5, 15] [µM] | IC50 [5, 16] [µM] | log P [6] | Kapp (apparent HSA binding constant) [7] | binding number n for HSA binding [7] | other results
1 | Cc1ccnc(-c2cc(CCCCCCCCCCCCc3ccnc(-c4cc(C)ccn4)c3)ccn2)c1.[Ru+2].[Ru+2].c1cnc2c(c1)ccc1cccnc12.c1cnc2c(c1)ccc1cccnc12.c1cnc2c(c1)ccc1cccnc12.c1cnc2c(c1)ccc1cccnc12 [Rubb12, [{Ru(phen)2}2{μ-bb12}]^4+, reference compound] | 10 ± 1 | 8 ± 3 | 44 ± 9 | 41 ± 7 | 55 ± 12 | 15 ± 5 |  |  |  | amount of complex in serum after intravenous injection [3]: decreased very rapidly; Kapp (HSA binding), previously determined [4]: 470000 M⁻¹; effect of Q[10]-binding on HSA binding affinity [4]: decreased the affinity
2 | Cc1ccnc(-c2cc(CCCCCCCc3ccnc(-c4cc(C)ccn4)c3)ccn2)c1.O=[N+]([O-])c1cc2cccnc2c2ncccc12.[Ru+2] [α-NO2phen-7, cis-α-[Ru(NO2phen)(bb7)]^2+] | 121 ± 18 | 126 ± 6 | > 400 | > 400 | 141 ± 29 | 99 ± 29 | −1.58 | 23.5 ± 4.9 × 10^5 (M)^−1 | 1.27 | 
3 | N.N.[Cl][Pt][Cl] [Cisplatin, reference compound] |  |  | > 400 | 146 ± 8 | 314 ± 8 | 12 ± 3 |  |  |  | 
4 | cis-α-[Ru(Me2phen)(bb7)]^2+ [α-Me2phen-7] | > 400 | > 400 | > 400 | 250 ± 46 | 358 ± 18 | 151 ± 30 |  | 0.29 ± 0.13 × 10^5 (M)^−1 | 0.91 | 
5 | Cc1ccnc(-c2cc(CCCCCCCc3ccnc(-c4cc(C)ccn4)c3)ccn2)c1.[Ru+2].c1cnc2c(c1)ccc1cccnc12 [α-phen-7, cis-α-[Ru(phen)(bb7)]^2+] | > 400 | 219 ± 43 | > 400 | 250 ± 42 | 319 ± 26 | 312 ± 15 |  | 0.10 ± 0.00 × 10^5 (M)^−1 | 0.80 | 
6 | Cc1ccnc(-c2cc(CCCCCCCc3ccnc(-c4cc(C)ccn4)c3)ccn2)c1.Cc1cnc2c(ccc3c(C)c(C)cnc32)c1C.[Ru+2] [α-Me4phen-7, cis-α-[Ru(Me4phen)(bb7)]^2+] | > 400 | > 400 | > 400 | 168 ± 5 | 162 ± 14 | 142 ± 8 | −1.33 | 4.6 ± 0.90 × 10^5 (M)^−1 | 1.14 | MIC [8]: 1 to 10 µM; fold lower antimicrobial activity to Gram-negative bacteria than Rubb12 ([8]; ref Sun et al.): ≈ 2 fold; fold decrease in toxicity by Q[10]-encapsulation ([9]; based on 48-h incubation toxicity to BHK and Hep-G2 cells): 2–3 fold; fold less toxic to eukaryotic cells than α-phen-12 ([9]; from IC50 values): 2–5 fold; fold higher HSA binding affinity on Q[10]-encapsulation ([7]; Q[10]-encapsulated vs free): 3–4 fold; fold tighter HSA binding than α-phen-12 and α-Me2phen-7 ([7]; from Kapp): approximately 10 fold; level of cellular accumulation, free vs Q[10]-encapsulated (luminescence intensity per cell) ([10]; BHK cells, […] μM, 1-h incubation): no difference; nuclear localization in BHK cells ([10]; preliminary confocal microscopy): did not localize in the nucleus
7 | Cc1cnc2c(ccc3c(C)c(C)cnc32)c1C.Cc1cnc2c(ccc3c(C)c(C)cnc32)c1C.Cc1cnc2c(ccc3c(C)c(C)cnc32)c1C.[Ru+2] [(Me4phen)3, [Ru(Me4phen)3]^2+, reference compound] | 220 ± 43 | 265 ± 13 | 157 ± 25 | 111 ± 23 | 253 ± 60 | 72 ± 31 |  | 0.12 ± 0.03 × 10^5 (M)^−1 | 0.81 | 
8 | Cc1ccnc(-c2cc(CCCCCCCCCCCCc3ccnc(-c4cc(C)ccn4)c3)ccn2)c1.[Ru+2].c1cnc2c(c1)ccc1cccnc12 [α-phen-12, cis-α-[Ru(phen)(bb12)]^2+] | 227 ± 22 | 177 ± 17 | 92 ± 26 | 85 ± 16 | 94 ± 13 | 19 ± 3 | −0.9 | 0.43 ± 0.17 × 10^5 (M)^−1 | 0.95 | MIC [8]: 1 to 10 µM; fold more toxic than α-Me4phen-7 ([9]; eukaryotic cells, from IC50 values): 2–5 fold

Source: paper PMC6287197, “Eukaryotic Cell Toxicity and HSA Binding of [Ru(Me4phen)(bb7)]^2+ and the Effect of Encapsulation in Cucurbit[10]uril” (Frontiers in Chemistry, 2018)
